Assays:
Type in all cases: biochemical
[1] = target: T1, KIAA 1361 (baculovirus expressed human KIAA 1361 kinase domain 2-322) (Homo sapiens, UniProt Q7L7X3); assay: KIAA 1361 Luciferase-Coupled Chemiluminescent Kinase assay (LCCA); conditions: 2 μM ATP, 10 μM MBP, 12 nM KIAA 1361, 2 hours; read-out: KIAA1361 inhibition IC50
T1 construct: human KIAA 1361 kinase domain 2-322; made in house
T1 sequence (Q7L7X3 2-322): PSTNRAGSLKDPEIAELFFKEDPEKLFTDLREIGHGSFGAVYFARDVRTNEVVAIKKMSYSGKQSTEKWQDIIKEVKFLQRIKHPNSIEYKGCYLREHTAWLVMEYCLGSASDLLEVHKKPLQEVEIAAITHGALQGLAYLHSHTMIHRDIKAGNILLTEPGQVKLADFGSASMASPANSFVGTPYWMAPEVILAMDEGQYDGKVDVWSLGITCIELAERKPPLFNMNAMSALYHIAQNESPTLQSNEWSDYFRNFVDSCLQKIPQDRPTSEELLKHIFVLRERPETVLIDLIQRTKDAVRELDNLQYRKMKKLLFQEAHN
Description: (§1) Kinase activity and compound inhibition are investigated using one or more of the three assay formats described below. The ATP concentrations for each assay are selected to be close to the Michaelis-Menten constant (KM) for each individual kinase. Dose-response experiments are performed at 10 different inhibitor concentrations in a 384-well plate format. The data are fitted to four-parameter equation (2) below; where Y is the observed signal, X is the inhibitor concentration, Min is the background signal in the absence of enzyme (0% enzyme activity), Max is the signal in the absence of inhibitor (100% enzyme activity), IC50 is the inhibitor concentration at 50% enzyme inhibition and H represents the empirical Hill's slope to measure the cooperativity. Typically H is close to unity. Y=Min+(Max−Min)/(1+(X/IC50)ˆH) Equation (2) KIAA 1361 Assay: […]
(§2) KIAA 1361 biochemical activity was assessed using a Luciferase-Coupled Chemiluminescent Kinase assay (LCCA) format. Kinase activity was measured as the percent ATP remaining following the kinase reaction. Remaining ATP was detected by luciferase-luciferin-coupled chemiluminescence. Specifically, the reaction was initiated by mixing test compounds, 2 μM ATP, 10 μM MBP and 12 nM KIAA 1361 (baculovirus expressed human KIAA 1361 kinase domain 2-322) in a 20 uL assay buffer (20 mM Tris-HCL pH7.5, 10 mM MgCl2, 0.02% Triton X-100, 100 mM DTT, 2 mM MnCl2). The mixture is incubated at ambient temperature for 2 hours after which 20 uL luciferase-luciferin mix is added and the chemiluminescent signal read using a Wallac Victor^2 reader. The luciferase-luciferin mix consists of 50 mM HEPES, pH 7.8, 8.5 ug/mL oxalic acid (pH 7.8), 5 (or 50) mM DTT, 0.4% Triton X-100, 0.25 mg/mL coenzyme A, 63 uM AMP, 28 ug/mL luciferin and 40,000 units of light/mL luciferase.

JIK = target: T2, JIK (Homo sapiens, UniProt Q9H2K8); assay: JIK Luciferase-Coupled Chemiluminescent Kinase assay (LCCA); conditions: 2 μM ATP, 10 μM MBP, 6 nM JIK, 2 hours; read-out: JIK inhibition IC50
T2 construct: 6 nM JIK (baculovirus expressed human KIAA 1361 kinase domain2-318); made in house
T2 sequence (Q9H2K8 2-318): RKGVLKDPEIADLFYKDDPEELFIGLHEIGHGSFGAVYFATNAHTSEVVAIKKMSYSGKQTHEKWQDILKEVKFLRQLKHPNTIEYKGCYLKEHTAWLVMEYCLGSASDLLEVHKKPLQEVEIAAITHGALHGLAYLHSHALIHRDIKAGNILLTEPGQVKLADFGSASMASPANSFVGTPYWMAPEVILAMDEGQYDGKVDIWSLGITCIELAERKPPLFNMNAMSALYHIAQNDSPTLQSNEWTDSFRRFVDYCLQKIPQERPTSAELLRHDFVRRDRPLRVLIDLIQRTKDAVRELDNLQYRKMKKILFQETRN
Description: as §1
as §2, with “JIK biochemical” for “KIAA 1361 biochemical”, “and 6” for “and 12”, “nM JIK” for “nM KIAA 1361”, “kinase domain2-318)” for “kinase domain 2-322)”

TAO = target: T3, TAO (Homo sapiens, UniProt Q9UL54); assay: TAO Luciferase-Coupled Chemiluminescent Kinase assay (LCCA); conditions: 2 μM ATP, 10 μM MBP, 12 nM TAO, 2 hours; read-out: TAO inhibition IC50
T3 sequence (Q9UL54 1-1235): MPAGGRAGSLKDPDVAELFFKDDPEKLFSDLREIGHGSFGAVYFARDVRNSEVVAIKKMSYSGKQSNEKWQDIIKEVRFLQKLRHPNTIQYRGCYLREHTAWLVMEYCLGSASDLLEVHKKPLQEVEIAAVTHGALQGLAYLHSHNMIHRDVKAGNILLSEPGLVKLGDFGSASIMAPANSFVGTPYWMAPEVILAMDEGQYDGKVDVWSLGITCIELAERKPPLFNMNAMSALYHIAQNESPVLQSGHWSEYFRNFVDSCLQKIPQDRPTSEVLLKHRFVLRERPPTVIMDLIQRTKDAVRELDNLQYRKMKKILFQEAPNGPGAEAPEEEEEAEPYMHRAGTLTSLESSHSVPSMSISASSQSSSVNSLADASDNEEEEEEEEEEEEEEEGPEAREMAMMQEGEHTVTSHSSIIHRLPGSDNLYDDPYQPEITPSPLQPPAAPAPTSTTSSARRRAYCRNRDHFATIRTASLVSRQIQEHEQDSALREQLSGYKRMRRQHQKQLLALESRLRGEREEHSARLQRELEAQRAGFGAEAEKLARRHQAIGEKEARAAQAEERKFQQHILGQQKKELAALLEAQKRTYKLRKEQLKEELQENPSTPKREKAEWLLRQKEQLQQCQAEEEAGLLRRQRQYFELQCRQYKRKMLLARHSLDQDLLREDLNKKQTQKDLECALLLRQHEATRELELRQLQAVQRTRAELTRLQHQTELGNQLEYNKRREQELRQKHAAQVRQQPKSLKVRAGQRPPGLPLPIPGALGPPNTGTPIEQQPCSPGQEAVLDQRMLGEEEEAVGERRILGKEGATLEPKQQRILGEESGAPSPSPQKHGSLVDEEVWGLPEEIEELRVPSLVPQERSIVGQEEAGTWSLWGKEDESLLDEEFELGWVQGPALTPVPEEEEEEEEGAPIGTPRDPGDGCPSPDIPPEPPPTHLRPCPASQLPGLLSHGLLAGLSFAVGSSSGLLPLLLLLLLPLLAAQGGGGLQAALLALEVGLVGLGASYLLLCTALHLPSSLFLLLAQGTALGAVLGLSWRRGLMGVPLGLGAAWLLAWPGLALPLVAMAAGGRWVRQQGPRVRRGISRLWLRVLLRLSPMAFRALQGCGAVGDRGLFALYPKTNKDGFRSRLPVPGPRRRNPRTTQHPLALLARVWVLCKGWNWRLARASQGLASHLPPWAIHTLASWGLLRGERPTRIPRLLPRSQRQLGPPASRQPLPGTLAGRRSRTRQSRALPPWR
Description: as §1
as §2, with “TAO biochemical” for “KIAA 1361 biochemical”, “nM TAO” for “nM KIAA 1361”, “mM […],” for “mM HEPES,”, “[…]” for “0.25 mg/mL”

## CCCCCOc1ccc(C(=O)NCC(=O)NC2CCCc3ccccc32)cc1 (stereo not drawn) [Entry 1, N-[2-oxo-2-(1,2,3,4-tetrahydronaphthalen-1-ylamino)ethyl]-4-(pentyloxy)benzamide]
[1]
  IC50: < 0.05 µM
JIK
  IC50: < 0.05 µM
TAO
  IC50: 0.05 to 0.5 µM

## O=C(COc1ccc(OCc2ccccc2)cc1)NCC(=O)NC1CCCc2ccccc21 (stereo not drawn) [Entry 2, N˜2˜-[({4-[(phenylmethyl)oxy]phenyl}oxy)acetyl]-N-(1,2,3,4-tetrahydronaphthalen-1-yl)glycinamide]
[1]
  IC50: 0.05 to 0.5 µM
JIK
  IC50: < 0.05 µM
TAO
  IC50: 0.05 to 0.5 µM

## O=C(COc1ccc(Br)cc1)NCC(=O)NC1CCCc2ccccc21 (stereo not drawn) [Entry 3, N˜2˜-{[(4-bromophenyl)oxy]acetyl}-N-(1,2,3,4-tetrahydronaphthalen-1-yl)glycinamide]
[1]
  IC50: 0.05 to 0.5 µM
JIK
  IC50: < 0.05 µM
TAO
  IC50: 0.05 to 0.5 µM

## CCc1ccc(-c2ccc(C(=O)NCC(=O)NC3CCCc4ccccc43)cc2)cc1 (stereo not drawn) [Entry 4, 4′-ethyl-N-[2-oxo-2-(1,2,3,4-tetrahydronaphthalen-1-ylamino)ethyl]biphenyl-4-carboxamide]
[1]
  IC50: < 0.05 µM
JIK
  IC50: < 0.05 µM
TAO
  IC50: < 0.05 µM

## CCc1ccc(-c2ccc(C(=O)NC(C)C(=O)NC3CCc4ccccc4C3)cc2)cc1 (stereo not drawn) [Entry 5, 4′-ethyl-N-[1-methyl-2-oxo-2-(1,2,3,4-tetrahydronaphthalen-2-ylamino)ethyl]biphenyl-4-carboxamide]
[1]
  IC50: < 0.05 µM
JIK
  IC50: < 0.05 µM
TAO
  IC50: 0.05 to 0.5 µM

## CCCCCCOc1ccc(C(=O)NCC(=O)NC2CCCc3ccccc32)cc1 (stereo not drawn) [Entry 6, 4-(hexyloxy)-N-[2-oxo-2-(1,2,3,4-tetrahydronaphthalen-1-ylamino)ethyl]benzamide]
[1]
  IC50: < 0.05 µM
JIK
  IC50: < 0.05 µM
TAO
  IC50: 0.05 to 0.5 µM

## O=C(NC1CCCc2ccccc21)C(NC(=O)C(c1ccccc1)C1CCCC1)c1cccnc1 (stereo not drawn) [Entry 7, 2-cyclopentyl-N-[2-oxo-1-pyridin-3-yl-2-(1,2,3,4-tetrahydronaphthalen-1-ylamino)ethyl]-2-phenylacetamide]
[1]
  IC50: 0.05 to 0.5 µM
JIK
  IC50: < 0.05 µM
TAO
  IC50: 0.05 to 0.5 µM

## CCCCCCCOc1ccc(C(=O)NCC(=O)NC2CCCc3ccccc32)cc1 (stereo not drawn) [Entry 8, 4-(heptyloxy)-N-[2-oxo-2-(1,2,3,4-tetrahydronaphthalen-1-ylamino)ethyl]benzamide]
[1]
  IC50: 0.05 to 0.5 µM
JIK
  IC50: 0.05 to 0.5 µM
TAO
  IC50: 0.05 to 0.5 µM

## CCCCCOc1ccc(C(=O)NC(C)C(=O)NC2CCc3ccccc3C2)cc1 (stereo not drawn) [Entry 9, N-[1-methyl-2-oxo-2-(1,2,3,4-tetrahydronaphthalen-2-ylamino)ethyl]-4-(pentyloxy)benzamide]
[1]
  IC50: 0.05 to 0.5 µM
JIK
  IC50: 0.05 to 0.5 µM
TAO
  IC50: 0.5 to 5 µM

## CCCCCCc1ccc(C(=O)NCC(=O)NC2CCCc3ccccc32)cc1 (stereo not drawn) [Entry 10, 4-hexyl-N-[2-oxo-2-(1,2,3,4-tetrahydronaphthalen-1-ylamino)ethyl]benzamide]
[1]
  IC50: 0.05 to 0.5 µM
JIK
  IC50: 0.05 to 0.5 µM
TAO
  IC50: 0.05 to 0.5 µM

## CCCCCc1ccc(C(=O)NCC(=O)NC2CCCc3ccccc32)cc1 (stereo not drawn) [Entry 11, N-[2-oxo-2-(1,2,3,4-tetrahydronaphthalen-1-ylamino)ethyl]-4-pentylbenzamide]
[1]
  IC50: 0.05 to 0.5 µM
JIK
  IC50: 0.05 to 0.5 µM
TAO
  IC50: 0.05 to 0.5 µM

## CCCCCCCc1ccc(C(=O)NCC(=O)NC2CCCc3ccccc32)cc1 (stereo not drawn) [Entry 12, 4-heptyl-N-[2-oxo-2-(1,2,3,4-tetrahydronaphthalen-1-ylamino)ethyl]benzamide]
[1]
  IC50: 0.05 to 0.5 µM
JIK
  IC50: 0.05 to 0.5 µM
TAO
  IC50: 0.5 to 5 µM

## COc1cc2cc(C(=O)N[C@@H](Cc3c[nH]c4ccccc34)C(=O)NC3CCCc4ccccc43)[nH]c2cc1OC (stereo partly drawn) [Entry 13, Nalpha-{[5,6-bis(methyloxy)-1H-indol-2-yl]carbonyl}-N-(1,2,3,4-tetrahydronaphthalen-1-yl)tryptophanamide]
[1]
  IC50: 0.05 to 0.5 µM
JIK
  IC50: < 0.05 µM
TAO
  IC50: 0.5 to 5 µM

Reference: US20070208166A1, “Tao Kinase Modulators And Method Of Use” (Exelixis, Inc., priority 2003, published 2007)
